Laboratory results published in PubChem BioAssay AID2060499 (Molecular Pharmacology Branch, DTP, NCI, 2025).

Test system: 777334-354-R2-J4-PDC tumor spheroids with HUVEC/MSC, viability
Test: Anticancer human tumor 777334-354-R2-J4-PDC patient-derived pancreatic adenocarcinoma cell line growth inhibition [GQUAD]
Details: for IC50: curve of first compound; for viability, T/C: stronger effect = lower value
Procedure, shortened: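 Viability of tumor cells grown as complex spheroids with endothelial and stromal cells, exposed to drug combinations. Top concentration at or near clinical Cmax (else 10 microM), diluted in half-log increments.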

[1] = second compound 0.0316 µM, first compound 0.0316 µM
[2] = second compound 0.0316 µM, first compound 0.1 µM
[3] = second compound 0.0316 µM, first compound 0.316 µM
[4] = second compound 0.0316 µM, first compound 1 µM
[5] = second compound 0.0316 µM, first compound 3.16 µM
[6] = second compound 0.0316 µM, first compound 10 µM
[7] = second compound 0.1 µM, first compound 0.0316 µM
[8] = second compound 0.1 µM, first compound 0.1 µM
[9] = second compound 0.1 µM, first compound 0.316 µM
[10] = second compound 0.1 µM, first compound 1 µM
[11] = second compound 0.1 µM, first compound 3.16 µM
[12] = second compound 0.1 µM, first compound 10 µM
[13] = second compound 0.316 µM, first compound 0.0316 µM
[14] = second compound 0.316 µM, first compound 0.1 µM
[15] = second compound 0.316 µM, first compound 0.316 µM
[16] = second compound 0.316 µM, first compound 1 µM
[17] = second compound 0.316 µM, first compound 3.16 µM
[18] = second compound 0.316 µM, first compound 10 µM
[19] = second compound 1 µM, first compound 0.0316 µM
[20] = second compound 1 µM, first compound 0.1 µM
[21] = second compound 1 µM, first compound 0.316 µM
[22] = second compound 1 µM, first compound 1 µM
[23] = second compound 1 µM, first compound 3.16 µM
[24] = second compound 1 µM, first compound 10 µM
[25] = second compound 3.16 µM, first compound 0.0316 µM
[26] = second compound 3.16 µM, first compound 0.1 µM
[27] = second compound 3.16 µM, first compound 0.316 µM
[28] = second compound 3.16 µM, first compound 1 µM
[29] = second compound 3.16 µM, first compound 3.16 µM
[30] = second compound 3.16 µM, first compound 10 µM
[31] = second compound 10 µM, first compound 0.0316 µM
[32] = second compound 10 µM, first compound 0.1 µM
[33] = second compound 10 µM, first compound 0.316 µM
[34] = second compound 10 µM, first compound 1 µM
[35] = second compound 10 µM, first compound 3.16 µM
[36] = second compound 10 µM, first compound 10 µM
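Also: spheroids exposed to compounds for 7 days before readout.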

## C=CC(=O)N1CCN(c2nc(=O)n(-c3c(C)ccnc3C(C)C)c3nc(-c4c(O)cccc4F)c(F)cc23)C(C)C1 (stereo not drawn) + CN(C)c1ccc(Nc2c3ccc(NC(=O)CCN4CCCC4)cc3nc3cc(NC(=O)CCN4CCCC4)ccc23)cc1
Second compound 0.0316 µM
  IC50: > 10 µM
Second compound 0.1 µM
  IC50: > 10 µM
Second compound 0.316 µM
  IC50: > 10 µM
Second compound 1 µM
  IC50: > 10 µM
Second compound 3.16 µM
  IC50: > 10 µM
Second compound 10 µM
  IC50: > 10 µM
[1]
  viability, T/C: 102%
[2]
  viability, T/C: 97%
[3]
  viability, T/C: 115%
[4]
  viability, T/C: 100%
[5]
  viability, T/C: 116%
[6]
  viability, T/C: 118%
[7]
  viability, T/C: 89.5%
[8]
  viability, T/C: 95.1%
[9]
  viability, T/C: 104%
[10]
  viability, T/C: 128%
[11]
  viability, T/C: 120%
[12]
  viability, T/C: 107%
[13]
  viability, T/C: 98.2%
[14]
  viability, T/C: 109%
[15]
  viability, T/C: 103%
[16]
  viability, T/C: 113%
[17]
  viability, T/C: 106%
[18]
  viability, T/C: 109%
[19]
  viability, T/C: 92.8%
[20]
  viability, T/C: 86.7%
[21]
  viability, T/C: 94.2%
[22]
  viability, T/C: 105%
[23]
  viability, T/C: 115%
[24]
  viability, T/C: 97.7%
[25]
  viability, T/C: 84.6%
[26]
  viability, T/C: 87.2%
[27]
  viability, T/C: 90.5%
[28]
  viability, T/C: 107%
[29]
  viability, T/C: 112%
[30]
  viability, T/C: 95%
[31]
  viability, T/C: 76.7%
[32]
  viability, T/C: 76.3%
[33]
  viability, T/C: 84%
[34]
  viability, T/C: 90.5%
[35]
  viability, T/C: 99.5%
[36]
  viability, T/C: 75.5%

## Cc1cccc(N(C)C(=O)C2C(O)CCN2c2nc(C)cc(C(F)(F)F)c2C#N)c1 (stereo not drawn) + CN(C)c1ccc(Nc2c3ccc(NC(=O)CCN4CCCC4)cc3nc3cc(NC(=O)CCN4CCCC4)ccc23)cc1
Second compound 0.0316 µM
  IC50: > 10 µM
Second compound 0.1 µM
  IC50: > 10 µM
Second compound 0.316 µM
  IC50: > 10 µM
Second compound 1 µM
  IC50: > 10 µM
Second compound 3.16 µM
  IC50: > 10 µM
Second compound 10 µM
  IC50: 10 µM
[1]
  viability, T/C: 89.3%
[2]
  viability, T/C: 87.3%
[3]
  viability, T/C: 101%
[4]
  viability, T/C: 87.2%
[5]
  viability, T/C: 93.2%
[6]
  viability, T/C: 89.7%
[7]
  viability, T/C: 87.1%
[8]
  viability, T/C: 93.3%
[9]
  viability, T/C: 85.1%
[10]
  viability, T/C: 93.1%
[11]
  viability, T/C: 95.2%
[12]
  viability, T/C: 90.9%
[13]
  viability, T/C: 95.3%
[14]
  viability, T/C: 79.1%
[15]
  viability, T/C: 94.8%
[16]
  viability, T/C: 89.1%
[17]
  viability, T/C: 106%
[18]
  viability, T/C: 88.5%
[19]
  viability, T/C: 90.7%
[20]
  viability, T/C: 82.5%
[21]
  viability, T/C: 76.6%
[22]
  viability, T/C: 84.1%
[23]
  viability, T/C: 96.7%
[24]
  viability, T/C: 81.8%
[25]
  viability, T/C: 77%
[26]
  viability, T/C: 71.2%
[27]
  viability, T/C: 85.1%
[28]
  viability, T/C: 75.3%
[29]
  viability, T/C: 80.1%
[30]
  viability, T/C: 80.6%
[31]
  viability, T/C: 73.7%
[32]
  viability, T/C: 79%
[33]
  viability, T/C: 69.9%
[34]
  viability, T/C: 71.7%
[35]
  viability, T/C: 62.8%
[36]
  viability, T/C: 50%

## Cn1ncnc1[C@H]1c2n[nH]c(=O)c3cc(F)cc(c23)N[C@@H]1c1ccc(F)cc1 + CN(C)c1ccc(Nc2c3ccc(NC(=O)CCN4CCCC4)cc3nc3cc(NC(=O)CCN4CCCC4)ccc23)cc1
Second compound 0.0316 µM
  IC50: > 0.316 µM
Second compound 0.1 µM
  IC50: > 0.316 µM
Second compound 0.316 µM
  IC50: > 0.316 µM
Second compound 1 µM
  IC50: > 0.316 µM
Second compound 3.16 µM
  IC50: > 0.316 µM
Second compound 10 µM
  IC50: > 0.316 µM
Second compound 0.0316 µM, first compound 0.000999 µM
  viability, T/C: 108%
Second compound 0.0316 µM, first compound 0.00316 µM
  viability, T/C: 89.9%
Second compound 0.0316 µM, first compound 0.00999 µM
  viability, T/C: 87.1%
[1]
  viability, T/C: 95.8%
Second compound 0.0316 µM, first compound 0.0999 µM
  viability, T/C: 92.2%
[3]
  viability, T/C: 79.7%
Second compound 0.1 µM, first compound 0.000999 µM
  viability, T/C: 98.7%
Second compound 0.1 µM, first compound 0.00316 µM
  viability, T/C: 85.4%
Second compound 0.1 µM, first compound 0.00999 µM
  viability, T/C: 99%
[7]
  viability, T/C: 88.6%
Second compound 0.1 µM, first compound 0.0999 µM
  viability, T/C: 79.6%
[9]
  viability, T/C: 81.2%
Second compound 0.316 µM, first compound 0.000999 µM
  viability, T/C: 94%
Second compound 0.316 µM, first compound 0.00316 µM
  viability, T/C: 87.4%
Second compound 0.316 µM, first compound 0.00999 µM
  viability, T/C: 93.1%
[13]
  viability, T/C: 87.9%
Second compound 0.316 µM, first compound 0.0999 µM
  viability, T/C: 88.5%
[15]
  viability, T/C: 70.5%
Second compound 1 µM, first compound 0.000999 µM
  viability, T/C: 103%
Second compound 1 µM, first compound 0.00316 µM
  viability, T/C: 86.6%
Second compound 1 µM, first compound 0.00999 µM
  viability, T/C: 85.5%
[19]
  viability, T/C: 85.5%
Second compound 1 µM, first compound 0.0999 µM
  viability, T/C: 82.5%
[21]
  viability, T/C: 69.5%
Second compound 3.16 µM, first compound 0.000999 µM
  viability, T/C: 73.5%
Second compound 3.16 µM, first compound 0.00316 µM
  viability, T/C: 72.7%
Second compound 3.16 µM, first compound 0.00999 µM
  viability, T/C: 81.6%
[25]
  viability, T/C: 89.9%
Second compound 3.16 µM, first compound 0.0999 µM
  viability, T/C: 83.1%
[27]
  viability, T/C: 70.9%
Second compound 10 µM, first compound 0.000999 µM
  viability, T/C: 76.2%
Second compound 10 µM, first compound 0.00316 µM
  viability, T/C: 74.9%
Second compound 10 µM, first compound 0.00999 µM
  viability, T/C: 80.6%
[31]
  viability, T/C: 77.6%
Second compound 10 µM, first compound 0.0999 µM
  viability, T/C: 82.2%
[33]
  viability, T/C: 66.1%

## O=C(c1cc(Cc2n[nH]c(=O)c3ccccc23)ccc1F)N1CCN(C(=O)C2CC2)CC1 + CN(C)c1ccc(Nc2c3ccc(NC(=O)CCN4CCCC4)cc3nc3cc(NC(=O)CCN4CCCC4)ccc23)cc1
Second compound 0.0316 µM
  IC50: > 10 µM
Second compound 0.1 µM
  IC50: > 10 µM
Second compound 0.316 µM
  IC50: > 10 µM
Second compound 1 µM
  IC50: > 10 µM
Second compound 3.16 µM
  IC50: > 10 µM
Second compound 10 µM
  IC50: > 10 µM
[1]
  viability, T/C: 97.1%
[2]
  viability, T/C: 104%
[3]
  viability, T/C: 104%
[4]
  viability, T/C: 86%
[5]
  viability, T/C: 84%
[6]
  viability, T/C: 74.3%
[7]
  viability, T/C: 88%
[8]
  viability, T/C: 82.6%
[9]
  viability, T/C: 93.5%
[10]
  viability, T/C: 92.1%
[11]
  viability, T/C: 88.5%
[12]
  viability, T/C: 72.5%
[13]
  viability, T/C: 80.6%
[14]
  viability, T/C: 94.9%
[15]
  viability, T/C: 97.2%
[16]
  viability, T/C: 81%
[17]
  viability, T/C: 94.1%
[18]
  viability, T/C: 66.7%
[19]
  viability, T/C: 84.9%
[20]
  viability, T/C: 89.8%
[21]
  viability, T/C: 86.7%
[22]
  viability, T/C: 86.2%
[23]
  viability, T/C: 80.4%
[24]
  viability, T/C: 65.4%
[25]
  viability, T/C: 79.7%
[26]
  viability, T/C: 81.7%
[27]
  viability, T/C: 68.3%
[28]
  viability, T/C: 76.2%
[29]
  viability, T/C: 82.6%
[30]
  viability, T/C: 69.1%
[31]
  viability, T/C: 64.7%
[32]
  viability, T/C: 76.7%
[33]
  viability, T/C: 76.4%
[34]
  viability, T/C: 81%
[35]
  viability, T/C: 71%
[36]
  viability, T/C: 66.9%
